Measured values reported in patent publication US20180371422A1, “NON-VIRAL IPSCS INDUCING METHOD, COMPOSITIONS, KITS AND IPSCS” (Guangzhou Biocare Biotechnology Co., Ltd, priority 2016, published 2018).
Counter-ions that a name gives are not always drawn.

Test system: urine-derived renal epithelial cells
Assay: AP staining, efficiency of AP positive clones (iPSCs induction)
Type: cell-based, human
Conditions: Example 5; day 0 to day 8 of induction culture; FIG. 11-12
Method: 1. The procedure for AP staining is as follows,
a) Aspirate and remove the growth medium from the cultures to be stained when the cell culture is finished, wash the culture with 1×PBS one time; Fix the cells with 4% paraformaldehyde at room temperature for 2 min;
b) Aspirate the fixing solution, wash the culture with 1×TBST for 3 times; Balance with AP buffer at room temperature for 5 min;
c) Chromogenic reaction was performed with AP chromogenic reagent at room temperature in dark for 15 min (5-15 min, terminated when the color of clones became darker and without background, increase the reaction time appropriately if the clones were not stained). The chromogenic reagent was aspirated, cells were washed with 1×PBS for two times, covered with an appropriate amount of 1×PBS, observed and counted under a microscope.
Alkaline phosphatase (AP) is a phosphomonoesterase. The alkaline phosphatase in the cytoplasm can hydrolyze sodium naphthol phosphate to produce α-naphthol in alkaline environments. The latter reacts with a stable azo salt and presents a deep purple color, which the presence of alkaline phosphatase and the abundance of expression could be determined accordingly. Alkaline phosphatase is highly expressed in undifferentiated pluripotent stem cells, and the activity of alkaline phosphatase in the differentiated pluripotent stem cells is decreased. Therefore, whether the cells are clones of iPSCs could be determined by alkaline phosphatase staining (AP staining). And, thus the efficiency of iPSCs production can be easily judged according to the efficiency of AP positive clones.
a) Electroporation transformation: The recombinant plasmids obtained in step 1) were added into the culture of renal epithelial cells after digestion with trypsin, and then transferred into the renal epithelial cells. After electroporation, the cells were seeded on a cell culture plate coated with extracellular matrix;
b) Induction culture: 1-3 days after Step 1), or when the cells reached a confluence of 30% or more, the culture medium of pluripotent stem cell was used to continue induction culture. About 15-30 days after the mature of iPSCs clones, the positive clones of iPSCs were identified by AP staining, and the efficiency of AP positive clones was calculated accordingly;

Compound | preferable concentration for promoting cell reprogramming (AP staining)
CCCC(=O)[O-].[Na+] [sodium butyrate, Sodium Butyrate] | 0.25 µM
O=C(NOC[C@H](O)CO)c1ccc(F)c(F)c1Nc1ccc(I)cc1F [PD0325901] | 0.5 µM
Cc1c[nH]c(-c2cnc(NCCNc3ccc(C#N)cn3)nc2-c2ccc(Cl)cc2Cl)n1 [CHIR-99021] | 3 µM
N[C@@H]1C[C@H]1c1ccccc1 [tranylcypromine hydrochloride, Tranylcypromine hydrochloride] | 2 µM
